From the supplement of paper PMC10307832 come the findings set out here.

What all share (assay): relative viability (nuclei count vs DMSO), 5 days (fraction); higher = more cells survive
Compound in test [1]: COc1cccc2c1C(=O)c1c(O)c3c(c(O)c1C2=O)C[C@@](O)(C(=O)CO)C[C@@H]3O[C@H]1C[C@H](N)[C@H](O)[C@H](C)O1 [Doxorubicin] + CC(=O)c1c(C)c2cnc(Nc3ccc(N4CCNCC4)cn3)nc2n(C2CCCC2)c1=O [Palbociclib] (partner 0.5 µM)
In outline:
(§1)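 For relative viability, nuclei counts in treated wells were divided by those in vehicle wells. Lung cancer cell lines had been pin-tool dosed in 1536-well plates the day after seeding and cultured for 5 days, then fixed and stained in one step (final 0.05% Triton X-100, 1% formaldehyde, 1 ug/ml Hoechst) and imaged at 4×. Doses were one drug alone or a fixed anchor-drug dose plus five library-drug doses (not always all listed) in √10 steps, and values are duplicate-plate medians.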

Compound in the test “Doxorubicin + Tozasertib”: COc1cccc2c1C(=O)c1c(O)c3c(c(O)c1C2=O)C[C@@](O)(C(=O)CO)C[C@@H]3O[C@H]1C[C@H](N)[C@H](O)[C@H](C)O1 [Doxorubicin] + Cc1cc(Nc2cc(N3CCN(C)CC3)nc(Sc3ccc(NC(=O)C4CC4)cc3)n2)n[nH]1 [Tozasertib] (partner 0.1 µM)
In outline: as §1

Compound in the test “Doxorubicin + Alpelisib”: COc1cccc2c1C(=O)c1c(O)c3c(c(O)c1C2=O)C[C@@](O)(C(=O)CO)C[C@@H]3O[C@H]1C[C@H](N)[C@H](O)[C@H](C)O1 [Doxorubicin] + Cc1nc(NC(=O)N2CCC[C@H]2C(N)=O)sc1-c1ccnc(C(C)(C)C(F)(F)F)c1 [Alpelisib] (partner 2 µM)
In outline: as §1

Compound in the test “Doxorubicin + Phenformin”: COc1cccc2c1C(=O)c1c(O)c3c(c(O)c1C2=O)C[C@@](O)(C(=O)CO)C[C@@H]3O[C@H]1C[C@H](N)[C@H](O)[C@H](C)O1 [Doxorubicin] + N=C(N)NC(=N)NCCc1ccccc1 [Phenformin] (partner 250 µM)
In a few lines: as §1

For the cell line 201T, the relative viability stood at 0.351 in test [1] (first compound 0.001 µM); 0.321 in test [1] (first compound 0.003162 µM); 0.345 in test [1] (first compound 0.01 µM); 0.349 in test [1] (first compound 0.03162 µM); 0.354 in test [1] (first compound 0.1 µM); 0.924 in the test with Doxorubicin + Tozasertib (first compound 0.001 µM). For the same cell line, the relative viability is 0.955 with Doxorubicin + Tozasertib (first compound 0.003162 µM); 0.949 with Doxorubicin + Tozasertib (first compound 0.01 µM); 0.927 with Doxorubicin + Tozasertib (first compound 0.03162 µM); 0.924 with Doxorubicin + Tozasertib (first compound 0.1 µM); 1.02 with Doxorubicin + Alpelisib (first compound 0.001 µM); 0.969 with Doxorubicin + Alpelisib (first compound 0.003162 µM). The relative viability in the test with Doxorubicin + Alpelisib (first compound 0.01 µM) stood at 0.985; in the test with Doxorubicin + Alpelisib (first compound 0.03162 µM), 0.969; with Doxorubicin + Alpelisib (first compound 0.1 µM) it was 1.02; with Doxorubicin + Phenformin (first compound 0.001 µM), 0.442; with Doxorubicin + Phenformin (first compound 0.003162 µM) it was 0.476; with Doxorubicin + Phenformin (first compound 0.01 µM), 0.468. The relative viability came to 0.416 with Doxorubicin + Phenformin (first compound 0.03162 µM) and 0.432 in the test with Doxorubicin + Phenformin (first compound 0.1 µM).
Regarding NCI-H2405, the relative viability in test [1] (first compound 0.001 µM) was 0.537; in test [1] (first compound 0.003162 µM), 0.534; in test [1] (first compound 0.01 µM) it was 0.51; in test [1] (first compound 0.03162 µM), 0.463; in test [1] (first compound 0.1 µM), 0.447; in the test with Doxorubicin + Tozasertib (first compound 0.001 µM), 0.847. For the same cell line, the relative viability with Doxorubicin + Tozasertib (first compound 0.003162 µM) was 0.759; with Doxorubicin + Tozasertib (first compound 0.01 µM) it was 0.74; in the test with Doxorubicin + Tozasertib (first compound 0.03162 µM), 0.693; in the test with Doxorubicin + Tozasertib (first compound 0.1 µM), 0.546; with Doxorubicin + Alpelisib (first compound 0.003162 µM) it was 0.728; with Doxorubicin + Alpelisib (first compound 0.01 µM), 0.82. The relative viability with Doxorubicin + Alpelisib (first compound 0.03162 µM) was 0.663; with Doxorubicin + Alpelisib (first compound 0.1 µM) it was 0.406; with Doxorubicin + Phenformin (first compound 0.001 µM), 0.346; with Doxorubicin + Phenformin (first compound 0.003162 µM), 0.373; in the test with Doxorubicin + Phenformin (first compound 0.01 µM) it was 0.436; with Doxorubicin + Phenformin (first compound 0.03162 µM), 0.419. The relative viability with Doxorubicin + Phenformin (first compound 0.1 µM) is 0.355.
LU99A: the relative viability in test [1] (first compound 0.001 µM) stood at 0.449; in test [1] (first compound 0.003162 µM) it was 0.521; in test [1] (first compound 0.01 µM) it was 0.44; in test [1] (first compound 0.03162 µM), 0.41; in test [1] (first compound 0.1 µM) it was 0.417; with Doxorubicin + Tozasertib (first compound 0.001 µM), 0.298. Also, the relative viability with Doxorubicin + Tozasertib (first compound 0.003162 µM) stood at 0.28; with Doxorubicin + Tozasertib (first compound 0.01 µM), 0.287; with Doxorubicin + Tozasertib (first compound 0.03162 µM), 0.281; in the test with Doxorubicin + Tozasertib (first compound 0.1 µM), 0.309; with Doxorubicin + Alpelisib (first compound 0.001 µM) it was 0.489; in the test with Doxorubicin + Alpelisib (first compound 0.003162 µM) it was 0.648. Further, the relative viability stood at 0.549 with Doxorubicin + Alpelisib (first compound 0.01 µM); 0.505 in the test with Doxorubicin + Alpelisib (first compound 0.03162 µM); 0.51 with Doxorubicin + Alpelisib (first compound 0.1 µM); 0.698 with Doxorubicin + Phenformin (first compound 0.001 µM); 1.06 in the test with Doxorubicin + Phenformin (first compound 0.003162 µM); 0.767 with Doxorubicin + Phenformin (first compound 0.01 µM). Further, the figures for the relative viability with Doxorubicin + Phenformin (first compound 0.03162 µM) and with Doxorubicin + Phenformin (first compound 0.1 µM) were 0.721 and 0.669, respectively.
For the cell line LC-2-ad, the relative viability in test [1] (first compound 0.001 µM) stood at 0.475; in test [1] (first compound 0.003162 µM), 0.476; in test [1] (first compound 0.01 µM), 0.496; in test [1] (first compound 0.03162 µM), 0.517; in test [1] (first compound 0.1 µM) it was 0.495; in the test with Doxorubicin + Tozasertib (first compound 0.001 µM), 0.455. Also, the relative viability was 0.402 with Doxorubicin + Tozasertib (first compound 0.003162 µM); 0.401 with Doxorubicin + Tozasertib (first compound 0.01 µM); 0.246 in the test with Doxorubicin + Tozasertib (first compound 0.03162 µM); 0.239 with Doxorubicin + Tozasertib (first compound 0.1 µM); 0.892 with Doxorubicin + Alpelisib (first compound 0.001 µM); 0.87 with Doxorubicin + Alpelisib (first compound 0.003162 µM). Further, the relative viability with Doxorubicin + Alpelisib (first compound 0.01 µM) came out at 0.924; with Doxorubicin + Alpelisib (first compound 0.03162 µM) it was 0.859; with Doxorubicin + Alpelisib (first compound 0.1 µM), 0.724; with Doxorubicin + Phenformin (first compound 0.001 µM), 0.498; with Doxorubicin + Phenformin (first compound 0.003162 µM) it was 0.516; in the test with Doxorubicin + Phenformin (first compound 0.01 µM) it was 0.562. The relative viability amounted to 0.289 with Doxorubicin + Phenformin (first compound 0.03162 µM) and 0.304 in the test with Doxorubicin + Phenformin (first compound 0.1 µM).
Regarding NCI-H2087, the relative viability in test [1] (first compound 0.001 µM) was determined as 0.259; in test [1] (first compound 0.003162 µM), 0.216; in test [1] (first compound 0.01 µM), 0.235; in test [1] (first compound 0.03162 µM), 0.176; in test [1] (first compound 0.1 µM), 0.227; with Doxorubicin + Tozasertib (first compound 0.003162 µM), 0.278. The relative viability with Doxorubicin + Tozasertib (first compound 0.01 µM) was determined as 0.248; in the test with Doxorubicin + Tozasertib (first compound 0.03162 µM) it was 0.165; in the test with Doxorubicin + Tozasertib (first compound 0.1 µM), 0.156; with Doxorubicin + Alpelisib (first compound 0.001 µM), 1.2; in the test with Doxorubicin + Alpelisib (first compound 0.003162 µM) it was 1.15; in the test with Doxorubicin + Alpelisib (first compound 0.01 µM), 1.19. For the same cell line, the relative viability with Doxorubicin + Alpelisib (first compound 0.03162 µM) was determined as 0.984; in the test with Doxorubicin + Alpelisib (first compound 0.1 µM), 0.862; with Doxorubicin + Phenformin (first compound 0.003162 µM), 0.45; with Doxorubicin + Phenformin (first compound 0.01 µM), 0.405; in the test with Doxorubicin + Phenformin (first compound 0.03162 µM), 0.273; with Doxorubicin + Phenformin (first compound 0.1 µM), 0.247.
On to COR-L23, for which the relative viability was found to be 0.327 in test [1] (first compound 0.001 µM); 0.274 in test [1] (first compound 0.003162 µM); 0.236 in test [1] (first compound 0.01 µM); 0.181 in test [1] (first compound 0.03162 µM); 0.106 in test [1] (first compound 0.1 µM); 0.227 with Doxorubicin + Tozasertib (first compound 0.001 µM). In addition, the relative viability was found to be 0.186 with Doxorubicin + Tozasertib (first compound 0.003162 µM); 0.201 with Doxorubicin + Tozasertib (first compound 0.01 µM); 0.123 with Doxorubicin + Tozasertib (first compound 0.03162 µM); 0.122 with Doxorubicin + Tozasertib (first compound 0.1 µM); 0.826 with Doxorubicin + Alpelisib (first compound 0.001 µM); 0.806 with Doxorubicin + Alpelisib (first compound 0.003162 µM). In addition, the relative viability came out at 0.866 in the test with Doxorubicin + Alpelisib (first compound 0.01 µM); 0.428 with Doxorubicin + Alpelisib (first compound 0.03162 µM); 0.128 with Doxorubicin + Alpelisib (first compound 0.1 µM); 0.422 in the test with Doxorubicin + Phenformin (first compound 0.001 µM); 0.501 in the test with Doxorubicin + Phenformin (first compound 0.003162 µM); 0.43 with Doxorubicin + Phenformin (first compound 0.01 µM). In addition, the relative viability worked out at 0.224 with Doxorubicin + Phenformin (first compound 0.03162 µM) and 0.131 in the test with Doxorubicin + Phenformin (first compound 0.1 µM).
For BEN, the relative viability was 0.454 in test [1] (first compound 0.001 µM); 0.458 in test [1] (first compound 0.003162 µM); 0.46 in test [1] (first compound 0.01 µM); 0.441 in test [1] (first compound 0.03162 µM); 0.465 in test [1] (first compound 0.1 µM); 0.587 with Doxorubicin + Tozasertib (first compound 0.001 µM). For the same cell line, the relative viability amounted to 0.564 with Doxorubicin + Tozasertib (first compound 0.003162 µM); 0.576 in the test with Doxorubicin + Tozasertib (first compound 0.01 µM); 0.469 in the test with Doxorubicin + Tozasertib (first compound 0.03162 µM); 0.54 in the test with Doxorubicin + Tozasertib (first compound 0.1 µM); 1.09 with Doxorubicin + Alpelisib (first compound 0.001 µM); 1.04 with Doxorubicin + Alpelisib (first compound 0.003162 µM). The relative viability in the test with Doxorubicin + Alpelisib (first compound 0.01 µM) turned out to be 0.913; with Doxorubicin + Alpelisib (first compound 0.03162 µM) it was 0.656; in the test with Doxorubicin + Alpelisib (first compound 0.1 µM), 0.886; in the test with Doxorubicin + Phenformin (first compound 0.001 µM) it was 0.251; with Doxorubicin + Phenformin (first compound 0.003162 µM), 0.231; in the test with Doxorubicin + Phenformin (first compound 0.01 µM), 0.278. For the same cell line, the results for the relative viability with Doxorubicin + Phenformin (first compound 0.03162 µM) and with Doxorubicin + Phenformin (first compound 0.1 µM) were 0.256 and 0.283, respectively.
